Species: Rattus norvegicus
Test: Open TG-GATES - Regimen: Single
Type: toxicity, organism-based, Sprague-Dawley
Set-up: regimen Single, gender Male, age 6 weeks
Conditions: in vivo, po, 80 mg/kg, route gavage, dose level Low; for Bas / Eos / Fbg / Hb / Ht / Lym / MCHC / MCV / Mono / PT / Plat / RBC / WBC: tissue Blood; for KIDNEY_L / KIDNEY_R / KIDNEY_TOTAL: tissue Kidney; for LIVER: tissue Liver

`COc1ccc([C@@H]2Sc3ccccc3N(CCN(C)C)C(=O)[C@@H]2OC(C)=O)cc1` [DILTIAZEM] showed a TG (6 h, tissue Plasma) of 33.4 mg/dL, a TP (6 h, tissue Plasma) of 5.3 g/dL and a gamma-GTP (6 h, tissue Plasma) of 1 IU/L. It also gave a TERMINAL_BW (9 h) of 181.8 g, a Bas (9 h) of 0% and an Eos (9 h) of 0.8%. The Fbg (9 h) was 300.8 mg/dL, the Hb (9 h) was 12.9 g/dL and the Ht (9 h) was 40.2%. For the same compound, the Lym (9 h) was 79.4%, the MCHC (9 h) was 32.1% and the MCV (9 h) was 66.7 fL. For the same compound, the Mono (9 h) was 3%, the PT (9 h) was 15.2 s and the Plat (9 h) was 116.7 x10_4/uL. It also gave an RBC (9 h) of 603.2 x10_4/ul, a WBC (9 h) of 69.7 x10_2/uL and a KIDNEY_L (9 h) of 0.9 g. For the same compound, the KIDNEY_R (9 h) was 0.9 g, the KIDNEY_TOTAL (9 h) was 1.7 g and the LIVER (9 h) was 7.3 g. The ALP (9 h, tissue Plasma) was 1382 IU/L, the ALT (9 h, tissue Plasma) was 44 IU/L and the AST (9 h, tissue Plasma) was 74.8 IU/L. The CRE (9 h, tissue Plasma) was 0.1 mg/dL, the Ca (9 h, tissue Plasma) was 10.7 mg/dL and the Cl (9 h, tissue Plasma) was 105.8 meq/L. It also gave a DBIL (9 h, tissue Plasma) of 0.016 mg/dL, a GLC (9 h, tissue Plasma) of 176.8 mg/dL and a K (9 h, tissue Plasma) of 4.1 meq/L. The LDH (9 h, tissue Plasma) was 59.6 IU/L, the Na (9 h, tissue Plasma) was 142 meq/L and the PL (9 h, tissue Plasma) was 129.4 mg/dL. For the same compound, the RALB (9 h, tissue Plasma) was 2.5 g/dL, the TBIL (9 h, tissue Plasma) was 0.032 mg/dL and the TC (9 h, tissue Plasma) was 69 mg/dL. For the same compound, the TG (9 h, tissue Plasma) was 55.8 mg/dL, the TP (9 h, tissue Plasma) was 5.1 g/dL and the gamma-GTP (9 h, tissue Plasma) was 1 IU/L. The TERMINAL_BW (24 h) was 195.1 g, the Bas (24 h) was 0% and the Eos (24 h) was 1%. It also gave a Fbg (24 h) of 257 mg/dL, a Hb (24 h) of 13.3 g/dL and a Ht (24 h) of 40.6%. It also gave a Lym (24 h) of 75%, an MCHC (24 h) of 32.8% and an MCV (24 h) of 67 fL. For the same compound, the Mono (24 h) was 3.2%, the PT (24 h) was 14.5 s and the Plat (24 h) was 121.8 x10_4/uL. For the same compound, the RBC (24 h) was 606 x10_4/ul, the WBC (24 h) was 83.3 x10_2/uL and the KIDNEY_L (24 h) was 0.9 g. For the same compound, the KIDNEY_R (24 h) was 0.9 g, the KIDNEY_TOTAL (24 h) was 1.7 g and the LIVER (24 h) was 9.3 g. It also gave an ALP (24 h, tissue Plasma) of 1732.2 IU/L, an ALT (24 h, tissue Plasma) of 49 IU/L and an AST (24 h, tissue Plasma) of 77.4 IU/L. The CRE (24 h, tissue Plasma) was 0.2 mg/dL, the Ca (24 h, tissue Plasma) was 11.2 mg/dL and the Cl (24 h, tissue Plasma) was 106.8 meq/L. For the same compound, the DBIL (24 h, tissue Plasma) was 0.016 mg/dL, the GLC (24 h, tissue Plasma) was 187.4 mg/dL and the K (24 h, tissue Plasma) was 4.3 meq/L. It also gave an LDH (24 h, tissue Plasma) of 82 IU/L, a Na (24 h, tissue Plasma) of 144.2 meq/L and a PL (24 h, tissue Plasma) of 146.4 mg/dL. It also gave an RALB (24 h, tissue Plasma) of 2.6 g/dL and a TBIL (24 h, tissue Plasma) of 0.032 mg/dL.
